Reference: patent US11214594B2, “Antimicrobial peptide having synergistic antibacterial effect with antibiotics on multidrug resistant bacteria, and use thereof” (priority 2016, dated 2022)
Where a SMILES comes first, the peptide text is derived from it. [ ]: non-standard residue; d: D form.

What was measured:
MDRAB 12036 = assay type: cell-based, Acinetobacter baumannii
Description: (§1) For the antibacterial activity, a minimal inhibitory concentration (MIC) of a peptide in which fungus bodies were not split in an MH medium with sufficient nutrients was measured.
(§2) Specifically, the strains described in the following [Table 2] were purchased and diluted with an MH medium such that the number of bacteria was 2×10^6 colony-forming units (CFUs), 100 μl of each of the diluted strains was aliquoted into a 96-well microtiter plate, and then 100 μl of a peptide solution diluted with the MH medium (solution diluted stepwise at 2: 1) was added to each well.

MRSA 3114 = assay type: cell-based, Staphylococcus aureus; details: 3114
Description: as §1, §2

MRSA 3126 = assay type: cell-based, Staphylococcus aureus; details: 3126
Description: as §1, §2

MDREC 1238 = assay type: cell-based, Escherichia coli
Description: as §1, §2

MDRST 8007 = test: Minimal inhibitory concentration (MIC), single agent; assay type: cell-based, Salmonella typhimurium; details: agent alone
Description: as §1, §2

MDRAB 12035 [1] = test: microbe, parasite or virus in culture; assay type: cell-based, Acinetobacter baumannii
How it was run: (§3)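 Each strain is brought to 2×10^6 CFU in nutrient-sufficient Mueller-Hinton medium and dispensed into wells. Peptide solutions, stepwise diluted 2:1 in the same medium, are then added. The minimal concentration preventing growth gives the MIC.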

A. baumannii = test: microbe, parasite or virus in culture; assay type: cell-based, Acinetobacter baumannii
How it was run: as §3

S. typhimurium = test: microbe, parasite or virus in culture; assay type: cell-based, Salmonella typhimurium
How it was run: as §3

MDRAB 12035 [2] = test: MIC of antibiotic during combined treatment with antimicrobial peptide; assay type: cell-based, Acinetobacter baumannii
Description: Specifically, the strains described in [Table 2] were prepared and diluted with an MH medium such that the number of bacteria was 2×10^6 colony-forming units (CFUs) per 1 ml, 100 μl of the diluted strains was each aliquoted into a 96-well microtiter plate, and then 50 μl of a peptide solution diluted with the MH medium from the MIC value (solution diluted stepwise at 2: 1) was added to each well. Thereafter, the MIC value of each mixed solution was determined by diluting the antibiotic solution with the MH medium, adding 50 μl of the diluted solution to each well, and performing an experiment even under a reversed condition.

MDRPA 2003 = assay type: cell-based, Pseudomonas aeruginosa
Description: as §1, §2

MDRPA 2002 = assay type: cell-based, Pseudomonas aeruginosa
Description: as §1, §2

S. aureus = test: microbe, parasite or virus in culture; assay type: cell-based, Staphylococcus aureus
How it was run: as §3

[3] = peptide treatment concentration 1 μg/ml
[4] = peptide treatment concentration 2 μg/ml
[5] = peptide treatment concentration 4 μg/ml
[6] = peptide treatment concentration 6 μg/ml
[7] = peptide treatment concentration 8 μg/ml
[8] = peptide treatment concentration 16 μg/ml
[9] = peptide treatment concentration 32 μg/ml
[10] = peptide treatment concentration 64 μg/ml

CC[C@H](C)[C@H](NC(=O)[C@H](CCCCN)NC(=O)[C@H](Cc1c[nH]c2ccccc12)NC(=O)[C@@H](N)CCCNC(=N)N)C(=O)N[C@@H](Cc1ccccc1)C(=O)N[C@@H](CCCCN)C(=O)N[C@@H](CCCCN)C(=O)N[C@H](C(=O)N1CCC[C@H]1C(=O)N[C@@H](CCCCN)C(=O)N[C@@H](CC(C)C)C(=O)N[C@@H](CC(C)C)C(=O)N[C@@H](Cc1c[nH]cn1)C(=O)N[C@@H](CO)C(=O)N[C@@H](CC(C)C)C(=O)N[C@@H](CCCCN)C(=O)N[C@@H](CCCCN)C(=O)N[C@@H](Cc1c[nH]c2ccccc12)C(N)=O)[C@@H](C)CC [PapMA-10, RWK IFK KIP KLL HSL KKW-NH2] (H-RWKIFKKIPKLLHSLKKW-NH2; N-terminus assumed)
16 µg/mL: Minimal inhibitory concentration MIC (A. baumannii) | Peptide MIC, peptide alone (A. baumannii) | Minimal inhibitory concentration MIC (S. typhimurium) | Erythromycin MIC during combined treatment with peptide (MDRAB 12035 [2]; [5]) | Linezolid MIC during combined treatment with peptide (MDRAB 12035 [2]; [7]) | Vancomycin MIC during combined treatment with peptide (MDRAB 12035 [2]; [7]) | Minimal inhibitory concentration MIC (MDRPA 2003)
>128 µg/mL: Minimal inhibitory concentration MIC (MRSA 3114) | Minimal inhibitory concentration MIC (MRSA 3126) | Linezolid MIC during combined treatment with peptide (MDRAB 12035 [2]; [3]) | Vancomycin MIC during combined treatment with peptide (MDRAB 12035 [2]; [3]) | Linezolid MIC during combined treatment with peptide (MDRAB 12035 [2]; [4]) | Vancomycin MIC during combined treatment with peptide (MDRAB 12035 [2]; [4]) | Minimal inhibitory concentration MIC (S. aureus)
2 µg/mL: Linezolid MIC during combined treatment with peptide (MDRAB 12035 [2]; [9])
0 µg/mL: Erythromycin MIC during combined treatment with peptide (MDRAB 12035 [2]; [9]) | Erythromycin MIC during combined treatment with peptide (MDRAB 12035 [2]; [10]) | Linezolid MIC during combined treatment with peptide (MDRAB 12035 [2]; [10]) | Vancomycin MIC during combined treatment with peptide (MDRAB 12035 [2]; [10])
32 µg/mL: Minimal inhibitory concentration MIC (MDRAB 12036) | Minimal inhibitory concentration MIC (MDRST 8007) | Minimal inhibitory concentration MIC (MDRAB 12035 [1]) | Peptide MIC, peptide alone (MDRAB 12035 [1]) | Erythromycin MIC during combined treatment with peptide (MDRAB 12035 [2]; [3]) | Erythromycin MIC during combined treatment with peptide (MDRAB 12035 [2]; [4]) | Linezolid MIC during combined treatment with peptide (MDRAB 12035 [2]; [6]) | Vancomycin MIC during combined treatment with peptide (MDRAB 12035 [2]; [6])
4 µg/mL: Erythromycin MIC during combined treatment with peptide (MDRAB 12035 [2]; [8]) | Vancomycin MIC during combined treatment with peptide (MDRAB 12035 [2]; [8]) | Vancomycin MIC during combined treatment with peptide (MDRAB 12035 [2]; [9])
8 µg/mL: Erythromycin MIC during combined treatment with peptide (MDRAB 12035 [2]; [6]) | Erythromycin MIC during combined treatment with peptide (MDRAB 12035 [2]; [7]) | Linezolid MIC during combined treatment with peptide (MDRAB 12035 [2]; [8]) | Minimal inhibitory concentration MIC (MDRPA 2002)
64 µg/mL: Minimal inhibitory concentration MIC (MDREC 1238) | Linezolid MIC during combined treatment with peptide (MDRAB 12035 [2]; [5]) | Vancomycin MIC during combined treatment with peptide (MDRAB 12035 [2]; [5])

CC[C@H](C)[C@H](NC(=O)[C@H](CCCCN)NC(=O)[C@H](Cc1c[nH]c2ccccc12)NC(=O)[C@@H](N)CCCNC(=N)N)C(=O)N[C@@H](Cc1ccccc1)C(=O)N[C@@H](CCCCN)C(=O)N[C@@H](CCCCN)C(=O)N[C@H](C(=O)N1CCC[C@H]1C(=O)N[C@@H](CCCCN)C(=O)N[C@@H](Cc1ccccc1)C(=O)N[C@@H](CC(C)C)C(=O)N[C@@H](Cc1c[nH]cn1)C(=O)N[C@@H](CO)C(=O)N[C@@H](CC(C)C)C(=O)N[C@@H](CCCCN)C(=O)N[C@@H](CCCCN)C(=O)N[C@@H](Cc1ccccc1)C(N)=O)[C@@H](C)CC [PapMA-6, RWK IFK KIP KFL HSL KKF-NH2] (H-RWKIFKKIPKFLHSLKKF-NH2; N-terminus assumed)
1 µg/mL: Linezolid MIC during combined treatment with peptide (MDRAB 12035 [2]; [9])
64 µg/mL: Minimal inhibitory concentration MIC (MDRAB 12036) | Minimal inhibitory concentration MIC (MDREC 1238) | Minimal inhibitory concentration MIC (MDRAB 12035 [1]) | Peptide MIC, peptide alone (MDRAB 12035 [1]) | Vancomycin MIC during combined treatment with peptide (MDRAB 12035 [2]; [5])
0.0625 µg/mL: Erythromycin MIC during combined treatment with peptide (MDRAB 12035 [2]; [9])
0.5 µg/mL: Erythromycin MIC during combined treatment with peptide (MDRAB 12035 [2]; [6])
0 µg/mL: Erythromycin MIC during combined treatment with peptide (MDRAB 12035 [2]; [10]) | Linezolid MIC during combined treatment with peptide (MDRAB 12035 [2]; [10]) | Vancomycin MIC during combined treatment with peptide (MDRAB 12035 [2]; [10])
2 µg/mL: Linezolid MIC during combined treatment with peptide (MDRAB 12035 [2]; [8]) | Vancomycin MIC during combined treatment with peptide (MDRAB 12035 [2]; [9])
0.25 µg/mL: Erythromycin MIC during combined treatment with peptide (MDRAB 12035 [2]; [7])
32 µg/mL: Minimal inhibitory concentration MIC (MDRST 8007) | Minimal inhibitory concentration MIC (A. baumannii) | Peptide MIC, peptide alone (A. baumannii) | Linezolid MIC during combined treatment with peptide (MDRAB 12035 [2]; [4]) | Minimal inhibitory concentration MIC (MDRPA 2003) | Minimal inhibitory concentration MIC (MDRPA 2002)
8 µg/mL: Erythromycin MIC during combined treatment with peptide (MDRAB 12035 [2]; [4]) | Linezolid MIC during combined treatment with peptide (MDRAB 12035 [2]; [6]) | Vancomycin MIC during combined treatment with peptide (MDRAB 12035 [2]; [6]) | Vancomycin MIC during combined treatment with peptide (MDRAB 12035 [2]; [7])
0.125 µg/mL: Erythromycin MIC during combined treatment with peptide (MDRAB 12035 [2]; [8])
128 µg/mL: Linezolid MIC during combined treatment with peptide (MDRAB 12035 [2]; [3]) | Vancomycin MIC during combined treatment with peptide (MDRAB 12035 [2]; [4])
16 µg/mL: Minimal inhibitory concentration MIC (S. typhimurium) | Erythromycin MIC during combined treatment with peptide (MDRAB 12035 [2]; [3]) | Linezolid MIC during combined treatment with peptide (MDRAB 12035 [2]; [5])
4 µg/mL: Erythromycin MIC during combined treatment with peptide (MDRAB 12035 [2]; [5]) | Linezolid MIC during combined treatment with peptide (MDRAB 12035 [2]; [7]) | Vancomycin MIC during combined treatment with peptide (MDRAB 12035 [2]; [8])
>128 µg/mL: Minimal inhibitory concentration MIC (MRSA 3114) | Minimal inhibitory concentration MIC (MRSA 3126) | Vancomycin MIC during combined treatment with peptide (MDRAB 12035 [2]; [3]) | Minimal inhibitory concentration MIC (S. aureus)

CC[C@H](C)[C@H](NC(=O)[C@H](CCCCN)NC(=O)[C@H](Cc1c[nH]c2ccccc12)NC(=O)[C@@H](N)CCCNC(=N)N)C(=O)N[C@@H](Cc1ccccc1)C(=O)N[C@@H](CCCCN)C(=O)N[C@@H](CCCCN)C(=O)N[C@H](C(=O)N[C@H](CCCCN)C(=O)N[C@@H](CCCCN)C(=O)N[C@@H](CC(C)C)C(=O)N[C@@H](CC(C)C)C(=O)N[C@@H](Cc1c[nH]cn1)C(=O)N[C@@H](CCCCN)C(=O)N[C@@H](C)C(=O)N[C@@H](CCCCN)C(=O)N[C@@H](CCCCN)C(=O)N[C@@H](Cc1c[nH]c2ccccc12)C(N)=O)[C@@H](C)CC [PapMA-18, RWK IFK KIk KLL HKA KKW-NH2] (H-RWKIFKKI[dK]KLLHKAKKW-NH2; N-terminus assumed)
16 µg/mL: Erythromycin MIC during combined treatment with peptide (MDRAB 12035 [2]; [5]) | Linezolid MIC during combined treatment with peptide (MDRAB 12035 [2]; [7]) | Vancomycin MIC during combined treatment with peptide (MDRAB 12035 [2]; [7]) | Vancomycin MIC during combined treatment with peptide (MDRAB 12035 [2]; [8])
64 µg/mL: Minimal inhibitory concentration MIC (MDREC 1238) | Minimal inhibitory concentration MIC (MDRST 8007) | Linezolid MIC during combined treatment with peptide (MDRAB 12035 [2]; [5]) | Minimal inhibitory concentration MIC (MDRPA 2003)
2 µg/mL: Erythromycin MIC during combined treatment with peptide (MDRAB 12035 [2]; [7])
0.5 µg/mL: Erythromycin MIC during combined treatment with peptide (MDRAB 12035 [2]; [8])
4 µg/mL: Erythromycin MIC during combined treatment with peptide (MDRAB 12035 [2]; [6])
8 µg/mL: Linezolid MIC during combined treatment with peptide (MDRAB 12035 [2]; [8])
128 µg/mL: Vancomycin MIC during combined treatment with peptide (MDRAB 12035 [2]; [5])
32 µg/mL: Minimal inhibitory concentration MIC (MDRAB 12036) | Minimal inhibitory concentration MIC (MDRAB 12035 [1]) | Peptide MIC, peptide alone (MDRAB 12035 [1]) | Minimal inhibitory concentration MIC (A. baumannii) | Peptide MIC, peptide alone (A. baumannii) | Minimal inhibitory concentration MIC (S. typhimurium) | Erythromycin MIC during combined treatment with peptide (MDRAB 12035 [2]; [3]) | Erythromycin MIC during combined treatment with peptide (MDRAB 12035 [2]; [4]) | Linezolid MIC during combined treatment with peptide (MDRAB 12035 [2]; [6]) | Vancomycin MIC during combined treatment with peptide (MDRAB 12035 [2]; [6]) | Minimal inhibitory concentration MIC (MDRPA 2002)
>128 µg/mL: Minimal inhibitory concentration MIC (MRSA 3114) | Minimal inhibitory concentration MIC (MRSA 3126) | Linezolid MIC during combined treatment with peptide (MDRAB 12035 [2]; [3]) | Vancomycin MIC during combined treatment with peptide (MDRAB 12035 [2]; [3]) | Linezolid MIC during combined treatment with peptide (MDRAB 12035 [2]; [4]) | Vancomycin MIC during combined treatment with peptide (MDRAB 12035 [2]; [4]) | Minimal inhibitory concentration MIC (S. aureus)
0 µg/mL: Erythromycin MIC during combined treatment with peptide (MDRAB 12035 [2]; [9]) | Linezolid MIC during combined treatment with peptide (MDRAB 12035 [2]; [9]) | Vancomycin MIC during combined treatment with peptide (MDRAB 12035 [2]; [9]) | Erythromycin MIC during combined treatment with peptide (MDRAB 12035 [2]; [10]) | Linezolid MIC during combined treatment with peptide (MDRAB 12035 [2]; [10]) | Vancomycin MIC during combined treatment with peptide (MDRAB 12035 [2]; [10])
